Experimental data reported in the CheMixHub viscosity set.
Where “and” joins values, the source holds several entries; their conditions need not be identical. Equal values may be shown once.

COCCOCCOC
Details	viscosity
298.15 K, 101 kPa	0.983 mPa·s and 0.983 mPa·s and 0.996 mPa·s
298.15 K, 101.32 kPa	0.989 mPa·s
301.15 K, 100 kPa	1.2 mPa·s and 1.3 mPa·s and 1.4 mPa·s
303.15 K, 101 kPa	0.923 mPa·s
303.15 K, 101.33 kPa	0.904 mPa·s
308.15 K, 101 kPa	0.839 mPa·s and 0.839 mPa·s and 0.868 mPa·s
318.15 K, 101 kPa	0.721 mPa·s and 0.721 mPa·s
318.15 K, 101.33 kPa	0.728 mPa·s (4×) and 0.725 mPa·s and 0.728 mPa·s

CCCCCCN
viscosity
Details	303.15 K	308.15 K	313.15 K
101 kPa	0.6979 mPa·s and 0.729 mPa·s and 0.7123 mPa·s	0.6 mPa·s and 0.6 mPa·s	0.6134 mPa·s
101.33 kPa	0.7123 mPa·s	–	0.6134 mPa·s

N#CCCO
Details	viscosity [mPa·s]
298 K, 101 kPa	3.571

OC(C(F)(F)F)C(F)(F)F
101 kPa
Details	viscosity
298.15 K	1.579 mPa·s and 1.619 mPa·s
303.15 K	1.361 mPa·s
313.15 K	0.989 mPa·s and 1 mPa·s
323.15 K	0.765 mPa·s and 0.788 mPa·s

CCCO
Details	viscosity
293.15 K, 101.33 kPa	2.185 mPa·s and 2.327 mPa·s
295.15 K, 101 kPa	2.12 mPa·s
298.15 K, 100 kPa	1.91 mPa·s
298.15 K, 101.31 kPa	2.004 mPa·s
298.15 K, 101.33 kPa	1.743 mPa·s
303 K, 101 kPa	1.634 mPa·s
303 K, 101.33 kPa	1.769 mPa·s
303.15 K, 101 kPa	1.777 mPa·s and 1.591 mPa·s and 1.768 mPa·s
303.15 K, 101.3 kPa	1.6 mPa·s and 1.784 mPa·s
303.16 K, 101 kPa	1.92 mPa·s
308 K, 101.3 kPa	1.461 mPa·s
308.15 K, 101.3 kPa	1.488 mPa·s and 1.4 mPa·s
308.15 K, 101.33 kPa	1.486 mPa·s and 1.466 mPa·s and 1.376 mPa·s
311 K, 101.3 kPa	1.43 mPa·s
313 K, 101.3 kPa	1.317 mPa·s
313.15 K, 101.3 kPa	1.3 mPa·s
313.15 K, 101.33 kPa	1.319 mPa·s
318.15 K, 101.3 kPa	1.1 mPa·s
319 K, 101.3 kPa	1.197 mPa·s
323 K, 101 kPa	0.9714 mPa·s
323 K, 101.3 kPa	1.165 mPa·s
323.15 K, 101 kPa	1.15 mPa·s
323.15 K, 101.3 kPa	0.92 mPa·s
323.15 K, 101.33 kPa	1.136 mPa·s and 1.166 mPa·s

CCCCCCn1cc[n+](C)c1.F[B-](F)(F)F
101 kPa
Details	viscosity
298.15 K	171.8 mPa·s and 211.2 mPa·s
299.15 K	198.1 mPa·s and 197.3 mPa·s
301.15 K	177.2 mPa·s and 175.8 mPa·s
302.15 K	167.2 mPa·s and 165.9 mPa·s
304.15 K	148.4 mPa·s and 148.6 mPa·s
305.15 K	141.2 mPa·s and 140.7 mPa·s
307.15 K	127.5 mPa·s and 126.7 mPa·s
308.15 K	145.4 mPa·s and 120.7 mPa·s and 120 mPa·s
313.15 K	113.6 mPa·s and 55 mPa·s
318.15 K	90.3 mPa·s
323.15 K	72.8 mPa·s and 36 mPa·s

C=CC(C)O (configuration not stated)
101.32 kPa
Details	viscosity [mPa·s]
308.15 K	1.294
313.15 K	1.144
318.15 K	1.015
323.15 K	0.9032

COC(=O)OC
viscosity
Details	293.15 K	298.15 K	303.15 K	308.15 K	313.15 K	318.15 K	323.15 K
100 kPa	0.62 mPa·s	0.58 mPa·s	0.5 mPa·s	0.47 mPa·s	0.45 mPa·s and 0.489 mPa·s	0.43 mPa·s and 0.462 mPa·s	0.38 mPa·s and 0.437 mPa·s
101 kPa	0.624 mPa·s	0.58 mPa·s	0.55 mPa·s and 0.55 mPa·s	0.49 mPa·s and 0.519 mPa·s	0.45 mPa·s and 0.491 mPa·s	0.4 mPa·s and 0.465 mPa·s	0.442 mPa·s
101.3 kPa	0.628 mPa·s	–	0.553 mPa·s	0.524 mPa·s	0.496 mPa·s	–	–
101.33 kPa	–	–	0.503 mPa·s	0.474 mPa·s	–	–	–

CNc1ccccc1
Details	viscosity [mPa·s]
298 K, 101 kPa	1.963
298 K, 101.3 kPa	1.963
298.15 K, 101 kPa	2.02
303 K, 101.3 kPa	1.717
303 K, 101.33 kPa	1.751
303.15 K, 101 kPa	1.55
308 K, 101.3 kPa	1.538
308.15 K, 101.33 kPa	1.515
313 K, 101.3 kPa	1.386
318 K, 101.3 kPa	1.251
323.15 K, 101 kPa	1.401

NCCCN
viscosity
Details	293.15 K	298.15 K	303.15 K	308.15 K	313.15 K	318.15 K	323.15 K
100 kPa	1.965 mPa·s and 1.96 mPa·s	1.769 mPa·s and 1.74 mPa·s	1.506 mPa·s and 1.57 mPa·s	1.465 mPa·s and 1.39 mPa·s	1.259 mPa·s and 1.26 mPa·s	1.181 mPa·s and 1.07 mPa·s	–
101 kPa	–	–	1.608 mPa·s and 1.594 mPa·s	1.445 mPa·s and 1.423 mPa·s	1.306 mPa·s and 1.297 mPa·s	1.191 mPa·s and 1.181 mPa·s	1.09 mPa·s and 1.07 mPa·s
101.3 kPa	2.03 mPa·s	1.83 mPa·s	1.62 mPa·s	1.42 mPa·s	1.23 mPa·s	1.13 mPa·s	–
101.33 kPa	1.93 mPa·s	1.67 mPa·s	1.52 mPa·s and 1.594 mPa·s	1.37 mPa·s and 1.423 mPa·s	1.22 mPa·s and 1.297 mPa·s	1.11 mPa·s and 1.181 mPa·s	1.07 mPa·s
